US20190241569A1, “3-(ARYL OR HETEROARYL) METHYLENEINDOLIN-2-ONE DERIVATIVES AS INHIBITORS OF CANCER STEM CELL PATHWAY KINASES FOR THE TREATMENT OF CANCER” (Boston Biomedical, Inc., priority 2013, published 2019)
Read-outs that look alike come from different tables or passages of the source.

How the values were obtained:
Format in all cases: cell-based
A549 = test: Bulk cancer cells, Cell Titer-Glo 72 hours (Test Example 2); conditions: Homo sapiens
Method: (§1) Tubes of 3× drug (60 uM in 500 uL complete media) were prepared from 5 mM stock solutions in DMSO. […] To treat cells, 50 uL of drug from the dilution plate was removed and added to the cell plates. […] Cells were harvested 72 hours after drug addition using Cell Titer-Glo (Promega) and luminescence measured on a plate reader.

ACHN = test: as above
Method: as §1

FaDu = test: as above; conditions: Homo sapiens
Method: as §1

FaDu CSC = test: Cancer stem cells, Cell Titer-Glo 72 hours (Test Example 3)
A549 CSC = test: as above; conditions: Homo sapiens
ACHN CSC = test: as above

IC50 (A549) [µM] | IC50 (ACHN; Homo sapiens, ACHN, 72 h) [µM] | IC50 (FaDu) [µM] | IC50 (FaDu CSC; Homo sapiens, FaDu, 72 h) [µM] | IC50 (A549 CSC) [µM] | IC50 (ACHN CSC; Homo sapiens, ACHN, 72 h) [µM] | IC50 (ACHN CSC) [µM] | IC50 (FaDu CSC) [µM] | IC50 (ACHN) [µM] | Structure (SMILES)
13.8 | – | 22.4 | – | 35.7 | – | – | – | – | Cc1cc(C)c(/C=C2\C(=O)Nc3ccc(-c4cc(-c5ccccc5)ccn4)cc32)[nH]1 [Example 223]
16.6 | 25.2 | 11.4 | 17 | 20.2 | – | – | – | – | Cc1cc(C)c(/C=C2\C(=O)Nc3ccc(-c4cnc5ccccn45)cc32)[nH]1 [Example 224]
– | – | – | – | – | – | 0.01 | 47.4 | – | Cc1cc(C)c(/C=C2\C(=O)Nc3ccc(-c4ncccc4C)cc32)[nH]1 [Example 225]
– | – | – | – | – | 0.02 | – | – | – | Cc1cc(C)c(/C=C2\C(=O)Nc3ccc(-c4ccccn4)cc32)[nH]1 [Example 226]
– | – | – | – | 25.4 | – | 3.42 | – | 22.4 | Cc1ccc(-c2ccc3c(c2)/C(=C/c2[nH]c(C)cc2C)C(=O)N3)cn1 [Example 228]
9.76 | 9 | 20.8 | 27.2 | 16.2 | – | – | – | – | Cc1cc(C)c(/C=C2\C(=O)Nc3ccc(-c4csc(-n5cccn5)n4)cc32)[nH]1 [Example 232]
– | – | – | – | – | 6.8 | – | – | – | Cc1cc(C)c(/C=C2\C(=O)Nc3ccc(-c4cnc(-c5ccccc5)cn4)cc32)[nH]1 [Example 233]
12.5 | – | 5.23 | 1.55 | 8.66 | – | – | – | – | Cc1cc(C)c(/C=C2\C(=O)Nc3ccc(-c4cnc5cccnn45)cc32)[nH]1 [Example 234]
– | 25.3 | 26.1 | 25.2 | 28.7 | – | – | – | – | Cc1cc(C)c(/C=C2\C(=O)Nc3ccc(-c4ncccn4)cc32)[nH]1 [Example 236]
– | – | – | – | – | 6.95 | – | – | – | Cc1cc(C)c(/C=C2\C(=O)Nc3ccc(-c4ccncc4)cc32)[nH]1 [Example 238]
18.2 | – | – | 8.8 | 5.83 | 2.54 | – | – | – | Cc1cc(C)c(/C=C2\C(=O)Nc3cc(-c4cnc5ccccc5n4)ccc32)[nH]1 [Example 242]
– | 22 | – | 3.61 | 23.7 | 4.55 | – | – | – | Cc1ccc(-c2ccc3c(c2)NC(=O)/C3=C\c2[nH]c(C)cc2C)cn1 [Example 244]
14.8 | – | – | 1.12 | 3.59 | 0.21 | – | – | – | CCN(CC)CCNC(=O)c1c(C)[nH]c(/C=C2\C(=O)Nc3cc(-c4ccc(-c5ccccc5)nc4)ccc32)c1C [Example 249]
– | – | 18.4 | – | 0.98 | – | – | – | – | Cc1cc(C)c(/C=C2\C(=O)Nc3cc(-c4ccncc4)ccc32)[nH]1 [Example 250]
16.4 | – | 16.6 | 5.15 | 6.59 | 1.36 | – | – | – | CCN(CC)CCNC(=O)c1c(C)[nH]c(/C=C2\C(=O)Nc3cc(-c4ccc5ccccc5n4)ccc32)c1C [Example 253]
7.14 | 6.51 | 9.12 | 24.4 | – | 1.91 | – | – | – | CCN(CC)CCNC(=O)c1c(C)[nH]c(/C=C2\C(=O)Nc3cc(-c4nccc5ccccc45)ccc32)c1C [Example 255]
– | – | 19.8 | 1.18 | 4.93 | 2.88 | – | – | – | CCN(CC)CCNC(=O)c1c(C)[nH]c(/C=C2\C(=O)Nc3cc(-c4ccc(-c5ccccc5)cn4)ccc32)c1C [Example 256]
15.8 | – | 12.9 | 2.83 | 11.6 | 1.07 | – | – | – | CCN(CC)CCNC(=O)c1c(C)[nH]c(/C=C2\C(=O)Nc3cc(-c4cnc5ccccc5c4)ccc32)c1C [Example 257]
11.1 | 13.2 | 13.4 | 13.1 | 40 | – | – | – | – | Cc1cc(C)c(/C=C2\C(=O)Nc3ccc(-c4cccc5ncccc45)cc32)[nH]1 [Example 259]
11.6 | 12 | 7.09 | 28.4 | – | 30.9 | – | – | – | CCN(CC)CCNC(=O)c1c(C)[nH]c(/C=C2\C(=O)Nc3ccc(-c4n[nH]c5c(N)cccc45)cc32)c1C [Example 268]

Further lines, the compound ahead of its results:

Structure (SMILES) | IC50 (A549) [µM] | IC50 (ACHN; Homo sapiens, ACHN, 72 h) [µM] | IC50 (FaDu) [µM] | IC50 (FaDu CSC; Homo sapiens, FaDu, 72 h) [µM] | IC50 (A549 CSC) [µM] | IC50 (ACHN CSC; Homo sapiens, ACHN, 72 h) [µM] | IC50 (ACHN CSC) [µM] | IC50 (FaDu CSC) [µM] | IC50 (ACHN) [µM]
Cc1[nH]c(/C=C2\C(=O)Nc3ccc(-c4cnn(-c5ccccc5)c4)cc32)c(C)c1C(=O)N1CCN(C)CC1 [Example 6] | 6.91 | 3.4 | 3.62 | 0.31 | 4.49 | – | – | – | –
CCN(CC)CCNC(=O)c1c(C)[nH]c(/C=C2\C(=O)Nc3cc(-c4csc(-c5ccccc5)n4)ccc32)c1C [Example 7] | – | – | 1.8 | 0.6 | 3.73 | 0.19 | – | – | –
Cc1[nH]c(/C=C2\C(=O)Nc3ccc(-c4ccc(-c5ccccc5)s4)cc32)c(C)c1C(=O)N1CCOCC1 [Example 11] | 10.1 | 12.8 | 21.1 | 2.47 | 11 | 0.23 | – | – | –
Cc1[nH]c(/C=C2\C(=O)Nc3ccc(-c4cnn(-c5ccccn5)c4)cc32)c(C)c1C(=O)N1CCN(C)CC1 [Example 31] | 18.9 | – | 3.67 | 0.24 | 11.7 | – | – | – | –
CCN(CC)CCNC(=O)c1c(C)[nH]c(/C=C2\C(=O)Nc3ccc(-c4csc(-c5ccc(C)cc5)n4)cc32)c1C [Example 102] | – | – | – | 3.4 | 10.5 | 0.69 | – | – | –
Cc1ccc(-c2nc(-c3ccc4c(c3)/C(=C/c3[nH]c(C)c(C(=O)N5CCN(C)CC5)c3C)C(=O)N4)cs2)cc1 [Example 104] | 8.55 | 4.25 | 7.87 | 1.98 | 0.45 | – | – | – | –
CCN(CC)CCNC(=O)c1c(C)[nH]c(/C=C2\C(=O)Nc3ccc(-c4csc(C5CCNC5)n4)cc32)c1C (centres unmarked) [Example 133] | 0.72 | 6.75 | 2.42 | – | 32.5 | – | – | – | –
Cc1[nH]c(/C=C2\C(=O)Nc3ccc(-c4csc(-c5ccccc5)n4)cc32)c(C)c1S(=O)(=O)N1CCCC1 [Example 146] | 2.86 | 12.6 | 5.48 | 6.56 | – | 5.05 | – | – | –
Cc1[nH]c(/C=C2\C(=O)Nc3ccc(-c4csc(-c5ccccc5)n4)cc32)c(C)c1CCC(=O)O [Example 148] | – | – | – | – | 1.65 | – | – | – | –
O=C1Nc2ccc(-c3csc(-c4ccccc4)n3)cc2/C1=C/c1cnc[nH]1 [Example 151] | 11.2 | 8.74 | 6.14 | 6.32 | 0.9 | – | – | – | –
O=C1Nc2ccc(-c3csc(-c4ccncc4)n3)cc2/C1=C/c1ncc[nH]1 [Example 153] | 14.8 | 0.29 | 3.42 | – | 2.6 | 9.21 | – | – | –
O=C1Nc2ccc(-c3csc(-c4ccccc4)n3)cc2/C1=C/c1cc2c([nH]1)CCCC2 [Example 155] | – | 34.6 | 20.2 | 4.09 | 1.42 | 2.52 | – | – | –
O=C1Nc2ccc(-c3csc(-c4ccncc4)n3)cc2/C1=C/c1cc2c([nH]1)CCCC2 [Example 156] | – | 37.8 | – | – | 0.8 | – | – | – | –
CCOC(=O)c1cc(C)c(/C=C2\C(=O)Nc3ccc(-c4csc(-c5ccccc5)n4)cc32)[nH]1 [Example 161] | 40 | 0.39 | 13.5 | – | 13.2 | – | – | – | –
O=C1Nc2ccc(-c3csc(-c4ccccc4)n3)cc2/C1=C/c1[nH]cc2ccccc12 [Example 162] | – | – | – | 5.04 | – | 4.08 | – | – | –
CCOC(=O)c1[nH]c(/C=C2\C(=O)Nc3ccc(-c4csc(-c5ccccc5)n4)cc32)c2c1CCCC2 [Example 164] | – | 0.83 | – | 2.91 | – | 1.6 | – | – | –
CCN(CC)CCN1CCCc2[nH]c(/C=C3\C(=O)Nc4ccc(-c5csc(C6CCNCC6)n5)cc43)c(C)c2C1=O [Example 178] | 7.06 | – | 8.67 | – | – | 11.9 | – | – | –
CCN(CC)CCNC(=O)c1c(C)[nH]c(/C=C2\C(=O)Nc3ccc(-c4ccc5ccccc5n4)cc32)c1C [Example 186] | 1.8 | 2.74 | 0.92 | – | 1.51 | 0.33 | – | – | –
CCN(CC)CCNC(=O)c1c(C)[nH]c(/C=C2\C(=O)Nc3ccc(-c4cnc(-c5ccccc5)cn4)cc32)c1C [Example 199] | 16.9 | 25.8 | 17.5 | 39.1 | 43.6 | – | – | – | –
CCN(CC)CCNC(=O)c1c(C)[nH]c(/C=C2\C(=O)Nc3ccc(-c4cnc(SC)cn4)cc32)c1C [Example 201] | 6.06 | 12.3 | 5.96 | – | 30 | – | – | – | –
CCN(CC)CCNC(=O)c1c(C)[nH]c(/C=C2\C(=O)Nc3ccc(-c4csc(C(=O)O)c4)cc32)c1C [Example 202] | 7.79 | 7.74 | – | 14.1 | 14.1 | 1.28 | – | – | –
Cc1cc(C)c(/C=C2\C(=O)Nc3ccc(-c4ncccc4C)cc32)[nH]1 [Example 211] | 22.4 | 7.95 | – | 41.1 | – | 0.01 | – | – | –
Cc1ccc(-c2ccc3c(c2)/C(=C/c2[nH]c(C)cc2C)C(=O)N3)cn1 [Example 213] | 25.8 | 24.9 | – | – | – | – | 0.01 | – | –
Cc1ccc(-c2ccc3c(c2)/C(=C/c2[nH]c(C)cc2C)C(=O)N3)nc1 [Example 216] | – | – | 37.3 | – | – | 0.05 | – | – | –
Cc1cc(C)c(/C=C2\C(=O)Nc3ccc(-c4cnsc4)cc32)[nH]1 [Example 220] | – | 42.8 | 26.7 | 43.4 | – | 17.1 | – | – | –
CSc1cnc(-c2ccc3c(c2)/C(=C/c2[nH]c(C)cc2C)C(=O)N3)cn1 [Example 221] | 35.8 | 0.16 | – | – | – | 18.3 | – | – | –
